Experimental findings from patent US12495798B2, “Nicotinamide compound and herbicidal composition comprising compound” (KOREA RESEARCH INSTITUTE OF CHEMICAL TECHNOLOGY, priority 2019, dated 2025) are described below.

Assay type in all cases: in vivo
In series [1] the test system is quack grass. In words: Herbicidal activity test against upland field weeds (foliar treatment test). Also noted: key to Foliar treatment herbicidal activity, quack grass: 0 (no control); 100 (complete control). Particulars: 50 g ai/ha, scale 0-100. The method in brief:
(§1)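 Weeds were raised from seed or rootstocks in horticultural soil in a greenhouse (30±5° C., 14/10 h light/dark), then foliage was hand-sprayed with compound at 50 or 75 g a.i./ha in 50% acetone with 0.1% Tween-20. Control was scored visually 0–100 against untreated plants after 14 days, or 21 if needed.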

Series [2] has as its system corn. Briefly: Phytotoxicity test for upland field crops (foliar treatment test). Also on record: key: 0 (no harm); 9 (complete withered). Here is the method:
(§2) Experimental Example 3: Phytotoxicity Test for Upland Field Crops (Foliar Treatment Test)
(§3) Foliar treatment was performed for grown crops and weeds in a square plastic pot having a surface area of 50 cm^2 filled with horticultural soil. As a fertilizer per pot, 0.5 g of horticultural mixed fertilizer (N:P:K=17:21:17) was treated by mixing in the upper soil. Five kinds of crops such as rice, wheat, corn, soybean, and cotton were sown in each pot, and after growing for a certain period in greenhouse conditions (average temperature 30±5° C., light/dark=14/10 hours), test compound solutions were made by diluting with the diluent (33% acetone, 0.1% Tween-20) so that the final treatment amount of the test compounds was 19˜300 g a.i./ha. The prepared test compound solutions were treated using a spray booth (SB6-016) at a treatment amount of 100 ml per 1 m^2 of treatment area. The treated plants were managed under the same greenhouse conditions as above, and external symptoms and phytotoxicity were investigated 7 and 14 days after treatment (after 21 days if necessary). In the evaluation of the phytotoxicity for the crop, the grade of 0 (no harm) to 9 (complete withered) was used. The results of Table 9 were obtained by evaluating crop phytotoxicity value to the untreated control.

Series [3] relates to wheat. Described as above. Also noted: key: 0 (no harm); 9 (complete withered). Here is the method: as §2, §3
Series [4] relates to cocklebur. In words: Herbicidal activity test against upland field weeds (foliar treatment test). Particulars: Xanthium strumarium, 50 g ai/ha, scale 0-100. The essentials:
as §1

The subject of series [5] is fall panicum. Described as above. Particulars: Panicum dichotomiflorum, 50 g ai/ha, scale 0-100. The essentials:
as §1

Series [6] relates to indian jointvetch. The description is as above. Also on record: key to Foliar treatment herbicidal activity, Indian jointvetch: 0 (no control); 100 (complete control). As to conditions: 50 g ai/ha, scale 0-100. The method in brief:
as §1

Series [7] has as its system black nightshade. Described as above. Also on record: key to Foliar treatment herbicidal activity, black nightshade: 0 (no control); 100 (complete control). As to conditions: 50 g ai/ha, scale 0-100; for pest or weed control at 50 g/ha: Solanum nigrum. The essentials:
as §1

Series [8] relates to crabgrass. Described as above. Also noted: key to Foliar treatment herbicidal activity, Crabgrass: 0 (no control); 100 (complete control). As to conditions: 50 g ai/ha, scale 0-100; for pest or weed control at 50 g/ha: Digitaria sanguinalis. The essentials:
as §1

For series [9], the system named is bindweed. Described as above. As to conditions: 50 g ai/ha, scale 0-100. The method in brief: as §1
Series [10] relates to sorghum. Described as above. Also noted: key to Foliar treatment herbicidal activity, Sorghum: 0 (no control); 100 (complete control). Particulars: 50 g ai/ha, scale 0-100; for plant injury at 50 g/ha: Sorghum. The essentials:
as §1

Series [11] deals with barnyard grass. The series is described as above. Also on record: key to Foliar treatment herbicidal activity, barnyard grass: 0 (no control); 100 (complete control). Particulars: 50 g ai/ha, scale 0-100; for pest or weed control at 50 g/ha: Echinochloa crus-galli. The essentials: as §1
In series [12] the test system is velvetleaf. The description is as above. As to conditions: Abutilon theophrasti, 50 g ai/ha, scale 0-100, read-out: Foliar treatment herbicidal activity, velvet leaf. The essentials:
as §1

The mark [13] stands for this setting: 50 g ai/ha, Corn (7 days after treatment).
Setting [14] is: 50 g ai/ha, Corn (14 days after treatment).
[15] abbreviates: 100 g ai/ha, Corn (7 days after treatment).
Where [16] appears, read: 100 g ai/ha, Corn (14 days after treatment).
Setting [17] is: 50 g ai/ha, Wheat (7 days after treatment).
[18] abbreviates: 50 g ai/ha, Wheat (14 days after treatment).
[19] abbreviates: 100 g ai/ha, Wheat (7 days after treatment).
Where [20] appears, read: 100 g ai/ha, Wheat (14 days after treatment).

Take `CCCn1nnnc1NC(=O)c1ccc(C(F)(F)F)nc1COCc1ncn(C)n1` [Compound No. 2-114, 2-(((1-methyl-1H-1,2,4-triazol-3-yl)methoxy)methyl)-N-(1-propyl-1H-tetrazol-5-yl)-6-(trifluoromethyl)nicotinamide]: the pest or weed control at 50 g/ha in series [1] was determined as 10%; in series [4], 90%; in series [5] it was 40%; in [6], 20%; in series [7] it was 95%; in series [9], 80%. For the same molecule, the pest or weed control at 50 g/ha in series [11] amounted to 60%; in series [12] it was 70%. Also, the “Foliar treatment phytotoxicity, Corn” value is 1 in series [2] (setting [13]), 0 in series [2] (setting [14]), 2 in series [2] (setting [15]) and 0 in series [2] (setting [16]). Moreover, the “Foliar treatment phytotoxicity, Wheat” value came out at 1 in series [3] (setting [17]), 0 in [3] (setting [18]), 2 in series [3] (setting [19]) and 1 in series [3] (setting [20]). Moreover, in series [8], the “Foliar treatment herbicidal activity, Crabgrass” value turned out to be 0. For the same molecule, the “Foliar treatment herbicidal activity, Sorghum” value in [10] is given as 0.

As a reminder, the plant injury is how far the test organism was held down. On to `C=CCn1nnnc1NC(=O)c1ccc(C(F)(F)F)nc1COCc1ncn(C)n1` [Compound No. 2-115, N-(1-allyl-1H-tetrazol-5-yl)-2-(((1-methyl-1H-1,2,4-triazol-3-yl)methoxy)methyl)-6-(trifluoromethyl)nicotinamide], for which the “Foliar treatment herbicidal activity, quack grass” value in [1] is 0. Moreover, the “Foliar treatment phytotoxicity, Corn” value in series [2] (setting [13]), in series [2] (setting [14]), in series [2] (setting [15]) and in series [2] (setting [16]) was 0 throughout. Further, the “Foliar treatment phytotoxicity, Wheat” value in [3] (setting [17]), in [3] (setting [18]), in [3] (setting [19]) and in series [3] (setting [20]) was 0 throughout. Further, the pest or weed control at 50 g/ha was 90% in series [4]; 50% in series [5]; 20% in [8]; 80% in series [9]; 50% in series [12]. Further, the “Foliar treatment herbicidal activity, Indian jointvetch” value in series [6] worked out at 0. In series [7], the “Foliar treatment herbicidal activity, black nightshade” value is 100. In series [10], this molecule registered a plant injury at 50 g/ha of 10%. For the same molecule, in series [11], the “Foliar treatment herbicidal activity, barnyard grass” value amounted to 0.

Consider `Cn1nnnc1NC(=O)c1ccc(C(F)(F)F)nc1COCc1nc(C(F)(F)F)n(C)n1` [Compound No. 2-118, N-(1-methyl-1H-tetrazol-5-yl)-2-(((1-methyl-5-(trifluoromethyl)-1H-1,2,4-triazol-3-yl)methoxy)methyl)-6-(trifluoromethyl)nicotinamide], for which the “Foliar treatment herbicidal activity, quack grass” value in series [1] was determined as 0. Further, the “Foliar treatment phytotoxicity, Corn” value in [2] (setting [13]), in [2] (setting [14]), in [2] (setting [15]) and in [2] (setting [16]) was 0 throughout. Also, the “Foliar treatment phytotoxicity, Wheat” value in [3] (setting [17]), in [3] (setting [18]), in series [3] (setting [19]) and in series [3] (setting [20]) was 0 throughout. The pest or weed control at 50 g/ha amounted to 90% in series [4]; 95% in [5]; 50% in [6]; 90% in series [8]; 95% in series [9]; 95% in [11]. The pest or weed control at 50 g/ha in [12] was 90%. In [7], the “Foliar treatment herbicidal activity, black nightshade” value is 100. The plant injury at 50 g/ha in series [10] was found to be 40%.

Consider `CCn1nnnc1NC(=O)c1ccc(C(F)(F)F)nc1COCc1nc(C(F)(F)F)n(C)n1` [Compound No. 2-119, N-(1-ethyl-1H-tetrazol-5-yl)-2-(((1-methyl-5-(trifluoromethyl)-1H-1,2,4-triazol-3-yl)methoxy)methyl)-6-(trifluoromethyl)nicotinamide], for which the pest or weed control at 50 g/ha in [1] was 30%; in [4], 90%; in series [5], 90%; in series [6], 60%; in series [7], 98%; in series [8] it was 95%. The pest or weed control at 50 g/ha in series [9] came out at 80%; in [11], 95%; in [12], 50%. Moreover, the “Foliar treatment phytotoxicity, Corn” value in series [2] (setting [13]), in [2] (setting [14]), in series [2] (setting [15]) and in series [2] (setting [16]) was 0 in each case. In addition, the “Foliar treatment phytotoxicity, Wheat” value in [3] (setting [17]), in series [3] (setting [18]), in [3] (setting [19]) and in series [3] (setting [20]) was 0 each time. Further, the plant injury at 50 g/ha in series [10] turned out to be 20%.

Take `CCCn1nnnc1NC(=O)c1ccc(C(F)(F)F)nc1COCc1nc(C(F)(F)F)n(C)n1` [Compound No. 2-120, 2-(((1-methyl-5-(trifluoromethyl)-1H-1,2,4-triazol-3-yl)methoxy)methyl)-N-(1-propyl-1H-tetrazol-5-yl)-6-(trifluoromethyl)nicotinamide]: the pest or weed control at 50 g/ha in series [1] was 10%; in series [4] it was 90%; in series [5] it was 90%; in series [6], 60%; in series [8] it was 95%; in series [9] it was 50%. Moreover, the pest or weed control at 50 g/ha in series [11] and in [12] was 80% each time. Also, the “Foliar treatment phytotoxicity, Corn” value in [2] (setting [13]), in series [2] (setting [14]), in series [2] (setting [15]) and in series [2] (setting [16]) was 0 throughout. In addition, the “Foliar treatment phytotoxicity, Wheat” value in series [3] (setting [17]), in series [3] (setting [18]), in series [3] (setting [19]) and in [3] (setting [20]) was 0 throughout. In addition, the “Foliar treatment herbicidal activity, black nightshade” value in series [7] is listed as 100. In series [10], this molecule gave a plant injury at 50 g/ha of 10%.

With `C=CCn1nnnc1NC(=O)c1ccc(C(F)(F)F)nc1COCc1nc(C(F)(F)F)n(C)n1` [Compound No. 2-121, N-(1-allyl-1H-tetrazol-5-yl)-2-(((1-methyl-5-(trifluoromethyl)-1H-1,2,4-triazol-3-yl)methoxy)methyl)-6-(trifluoromethyl)nicotinamide], the “Foliar treatment herbicidal activity, quack grass” value in series [1] is on record as 0. For the same molecule, the “Foliar treatment phytotoxicity, Corn” value in series [2] (setting [13]), in series [2] (setting [14]), in [2] (setting [15]) and in [2] (setting [16]) was 0 in each case. In addition, the “Foliar treatment phytotoxicity, Wheat” value in series [3] (setting [17]), in series [3] (setting [18]), in series [3] (setting [19]) and in series [3] (setting [20]) was 0 throughout. Besides, the pest or weed control at 50 g/ha in series [4] turned out to be 70%; in [5], 50%; in [6] it was 30%; in series [7], 95%; in [8] it was 30%; in [9], 40%. The pest or weed control at 50 g/ha worked out at 20% in [11] and 40% in series [12]. In series [10], the plant injury at 50 g/ha is 10%.
